In ChEMBL document CHEMBL5226338, “Molecular hybrids: A five-year survey on structures of multiple targeted hybrids of protein kinase inhibitors for cancer therapy” (Eur J Med Chem, 2021) one finds inhibition and IC50 data, which are given here for 12 molecules.

Assay [1] deals with Tubulin beta (Homo sapiens) (UniProt P68371+Q9H4B7+Q13509+P04350+Q3ZCM7+P07437+Q13885+Q9BVA1+Q9BUF5+A6NNZ2). Put plainly: Inhibition of beta-tubulin polymerization in human HepG2 cells using TMB substrate by spectrophotometry analysis relative to control. It is filed as cell-based. The conditions noted are these: concentration not given here.
Assay [2] addresses T1, Vascular endothelial growth factor receptor 2 (Homo sapiens, UniProt P35968). Put plainly: Inhibition of human VEGFR2 using TMB as substrate by ELISA. For orientation: An ELISA detects its analyte on a solid surface through an enzyme-linked reagent.
In another assay the test system is SK-MEL-1. As to the kind of experiment: Antiproliferative activity against human SK-MEL-1 cells assessed as inhibition of cell growth incubated for 72 hrs by MTT assay. The settings on record: SK-MEL-1, 72 h. It is filed as functional, cell-based. In general terms: Tetrazolium assays rely on reduction of a dye to a coloured formazan, in cell work by metabolically active cells.

The target of assay [3] is Tubulin (Bos taurus, UniProt Q6B856+Q862L2+Q862F3). As to the kind of experiment: Inhibition of bovine brain tubulin polymerization incubated for 20 mins by spectrophotometric method. It counts as tissue-based.
The subject of a further assay is U-937. Put plainly: Antiproliferative activity against human U-937 cells assessed as inhibition of cell growth incubated for 72 hrs by MTT assay. It is filed as functional, cell-based. The settings on record: U-937, 72 h.
A further assay concerns the target Cyclin-dependent kinase. As to the kind of experiment: Inhibition of CDK (unknown origin). It counts as protein assay, Homo sapiens.
For assay [4], the target named is T2, Epidermal growth factor receptor (Homo sapiens, UniProt P00533). Put plainly: Inhibition of EGFR (unknown origin).
T2 sequence (P00533 whole entry): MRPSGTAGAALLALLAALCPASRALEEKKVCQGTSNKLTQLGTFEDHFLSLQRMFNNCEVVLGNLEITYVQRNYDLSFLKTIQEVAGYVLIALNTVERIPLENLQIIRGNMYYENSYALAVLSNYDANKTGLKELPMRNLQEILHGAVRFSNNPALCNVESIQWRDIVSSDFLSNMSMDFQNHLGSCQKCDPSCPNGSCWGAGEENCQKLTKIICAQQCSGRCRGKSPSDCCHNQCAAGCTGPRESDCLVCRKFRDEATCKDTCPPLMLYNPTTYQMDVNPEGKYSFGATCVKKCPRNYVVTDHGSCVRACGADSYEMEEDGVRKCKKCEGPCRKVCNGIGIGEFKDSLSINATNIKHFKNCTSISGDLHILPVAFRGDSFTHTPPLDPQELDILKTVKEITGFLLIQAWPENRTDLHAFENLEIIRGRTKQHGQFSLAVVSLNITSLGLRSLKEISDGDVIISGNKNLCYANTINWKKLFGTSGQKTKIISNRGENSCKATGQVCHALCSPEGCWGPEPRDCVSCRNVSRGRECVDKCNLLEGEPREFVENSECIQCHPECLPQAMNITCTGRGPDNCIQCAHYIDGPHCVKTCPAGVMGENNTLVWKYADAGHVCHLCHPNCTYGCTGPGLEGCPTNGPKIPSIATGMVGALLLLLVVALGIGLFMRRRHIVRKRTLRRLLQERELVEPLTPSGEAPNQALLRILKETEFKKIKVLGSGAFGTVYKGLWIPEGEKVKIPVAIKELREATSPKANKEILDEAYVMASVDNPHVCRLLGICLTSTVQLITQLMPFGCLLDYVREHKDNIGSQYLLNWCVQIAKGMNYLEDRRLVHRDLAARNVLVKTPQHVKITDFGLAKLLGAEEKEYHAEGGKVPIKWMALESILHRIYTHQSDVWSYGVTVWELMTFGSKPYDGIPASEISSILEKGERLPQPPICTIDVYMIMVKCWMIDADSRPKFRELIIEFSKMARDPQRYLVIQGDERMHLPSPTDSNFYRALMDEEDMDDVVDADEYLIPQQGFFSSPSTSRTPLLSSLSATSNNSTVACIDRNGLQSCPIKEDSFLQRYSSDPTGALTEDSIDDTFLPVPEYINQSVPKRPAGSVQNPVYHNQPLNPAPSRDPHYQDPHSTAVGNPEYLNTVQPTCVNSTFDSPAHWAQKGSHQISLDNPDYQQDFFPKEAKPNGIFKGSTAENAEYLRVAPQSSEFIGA
For assay [5], the target named is Tubulin beta. As to the kind of experiment: Inhibition of beta-tubulin polymerization (unknown origin) by ELISA. It counts as protein assay, Homo sapiens.
Another assay relates to HepG2. As to the kind of experiment: Cytotoxicity against human HepG2 cells assessed as inhibition of cell growth incubated for 24 hrs by MTT assay. It counts as functional, cell-based. The conditions noted are these: HepG2, 24 h.
For assay [6], the target named is T2, Epidermal growth factor receptor. As to the kind of experiment: Inhibition of GST-fused EGFR (unknown origin) in presence of ATP by microplate reader analysis.
Assay [7] deals with Tubulin. Put plainly: Inhibition of tubulin (unknown origin) polymerization. It is filed as protein-complex assay, Homo sapiens.
In the next assay the target is DNA topoisomerase 1 (Homo sapiens, UniProt P11387). Put plainly: Inhibition of human DNA topoisomerase 1 incubated for 2 hrs by ELISA.
DNA topoisomerase 1, sequence (P11387 whole entry): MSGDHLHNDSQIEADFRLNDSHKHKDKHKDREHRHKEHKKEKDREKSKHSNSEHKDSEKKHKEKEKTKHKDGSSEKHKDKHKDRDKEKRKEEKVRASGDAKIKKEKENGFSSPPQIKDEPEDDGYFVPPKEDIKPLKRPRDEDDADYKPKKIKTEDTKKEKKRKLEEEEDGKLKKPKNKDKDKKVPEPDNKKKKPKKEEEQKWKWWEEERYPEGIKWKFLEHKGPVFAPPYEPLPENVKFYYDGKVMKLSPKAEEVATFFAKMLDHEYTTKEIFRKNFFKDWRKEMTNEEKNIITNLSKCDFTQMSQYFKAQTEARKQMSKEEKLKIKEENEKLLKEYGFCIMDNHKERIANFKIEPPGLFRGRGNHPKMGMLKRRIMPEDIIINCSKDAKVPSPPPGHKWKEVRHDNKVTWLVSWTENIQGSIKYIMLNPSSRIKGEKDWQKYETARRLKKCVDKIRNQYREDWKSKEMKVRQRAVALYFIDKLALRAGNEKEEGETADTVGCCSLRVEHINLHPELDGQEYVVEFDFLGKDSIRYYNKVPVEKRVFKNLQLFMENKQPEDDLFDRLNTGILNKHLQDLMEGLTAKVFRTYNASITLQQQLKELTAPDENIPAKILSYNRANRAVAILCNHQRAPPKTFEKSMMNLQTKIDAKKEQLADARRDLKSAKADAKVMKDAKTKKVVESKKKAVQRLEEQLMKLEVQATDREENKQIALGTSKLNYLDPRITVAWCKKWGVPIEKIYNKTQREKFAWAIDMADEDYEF
Assay [8] addresses T1, Vascular endothelial growth factor receptor 2. As to the kind of experiment: Inhibition of VEGFR2 (unknown origin) using biotin-gastrin precursor (Tyr87) peptide as substrate incubated for 1 hr in presence of ATP by spectrophotometric analysis relative to sorafenib. The conditions noted are these: concentration not given here.
The target of assay [9] is T2, Epidermal growth factor receptor. Put plainly: Inhibition of EGFR (unknown origin) using poly (Glu,Tyr) 4:1 as substrate incubated for 1 hr in presence of ATP by spectrophotometric analysis relative to sorafenib. The conditions noted are these: concentration not given here.
For assay [10], the target named is Tyrosine-protein kinase JAK2 (Homo sapiens, UniProt O60674). As to the kind of experiment: Inhibition of JAK2 (unknown origin).
In another assay the target is Histone deacetylase 1 (Homo sapiens, UniProt Q13547). Put plainly: Inhibition of HDAC1 (unknown origin).
Assay [11] addresses T3, Protein deacetylase HDAC6 (Homo sapiens, UniProt Q9UBN7).
T3 sequence (Q9UBN7 whole entry): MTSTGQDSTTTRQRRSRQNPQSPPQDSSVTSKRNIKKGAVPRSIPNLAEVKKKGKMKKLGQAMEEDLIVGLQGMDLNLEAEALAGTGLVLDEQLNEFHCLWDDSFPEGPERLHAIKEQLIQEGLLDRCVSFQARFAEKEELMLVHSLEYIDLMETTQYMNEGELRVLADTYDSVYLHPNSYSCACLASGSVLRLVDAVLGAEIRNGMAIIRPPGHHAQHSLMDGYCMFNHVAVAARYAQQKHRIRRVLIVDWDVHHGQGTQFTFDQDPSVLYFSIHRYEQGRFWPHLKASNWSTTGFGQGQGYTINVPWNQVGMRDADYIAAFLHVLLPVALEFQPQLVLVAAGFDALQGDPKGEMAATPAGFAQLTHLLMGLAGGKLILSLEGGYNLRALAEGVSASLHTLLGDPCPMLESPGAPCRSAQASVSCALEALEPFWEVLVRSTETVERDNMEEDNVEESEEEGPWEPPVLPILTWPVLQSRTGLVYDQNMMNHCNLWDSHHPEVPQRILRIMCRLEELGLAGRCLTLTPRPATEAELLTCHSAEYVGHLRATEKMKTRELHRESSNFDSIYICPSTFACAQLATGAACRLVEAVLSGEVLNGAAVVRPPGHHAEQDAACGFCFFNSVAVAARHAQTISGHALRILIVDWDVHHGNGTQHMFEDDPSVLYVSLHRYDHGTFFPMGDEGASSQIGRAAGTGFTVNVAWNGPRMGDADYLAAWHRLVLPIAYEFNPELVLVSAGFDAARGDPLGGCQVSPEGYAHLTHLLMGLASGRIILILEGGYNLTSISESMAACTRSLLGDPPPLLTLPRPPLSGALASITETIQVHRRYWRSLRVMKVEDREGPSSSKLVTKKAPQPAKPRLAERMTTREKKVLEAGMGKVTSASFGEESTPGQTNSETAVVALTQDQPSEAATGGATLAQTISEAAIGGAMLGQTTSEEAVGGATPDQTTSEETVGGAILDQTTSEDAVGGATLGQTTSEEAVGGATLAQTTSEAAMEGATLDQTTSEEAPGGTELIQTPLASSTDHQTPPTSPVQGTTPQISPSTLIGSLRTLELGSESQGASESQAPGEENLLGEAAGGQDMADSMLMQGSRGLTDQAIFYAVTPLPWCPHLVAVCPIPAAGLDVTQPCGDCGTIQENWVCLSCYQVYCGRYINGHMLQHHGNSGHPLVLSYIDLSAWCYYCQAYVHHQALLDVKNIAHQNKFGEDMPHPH
Put plainly: Inhibition of HDAC6 (unknown origin).

The subject of the next assay is BGC-823. Put plainly: Antiproliferative activity against human BGC-823 cells assessed as inhibition of cell growth incubated for 24 to 72 hrs by MTT assay. It counts as functional, cell-based.
A further assay deals with T-24. Put plainly: Antiproliferative activity against human T24 cells assessed as inhibition of cell growth incubated for 24 to 72 hrs by MTT assay. It is filed as functional, cell-based.
The subject of the next assay is CAPAN-1. Put plainly: Antiproliferative activity against human CAPAN-1 cells assessed as inhibition of cell growth incubated for 24 to 72 hrs by MTT assay. It is filed as functional, cell-based.
Assay [12] concerns the target DNA topoisomerase 2-alpha (Homo sapiens, UniProt P11388). Put plainly: Inhibition of human topoisomerase 2 alpha assessed as relaxation of supercoiled plasmid pBR322 DNA incubated for 30 mins by ethidium bromide staining based agarose gel electrophoresis.
Assay [13] can be described thus: Inhibition of tyrosine kinase in human PANC-1 cells. It counts as cell-based.
Assay [14] in a line: Inhibition of tyrosine kinase in human CAPAN-1 cells. It counts as cell-based.
In another assay the test system is DU-145. Put plainly: Antiproliferative activity against human DU-145 cells assessed as inhibition of cell growth incubated for 24 to 72 hrs by MTT assay. It is filed as functional, cell-based.
For another assay, the system named is HGC-27. As to the kind of experiment: Antiproliferative activity against human HGC-27 cells assessed as inhibition of cell growth incubated for 24 to 72 hrs by MTT assay. It is filed as functional, cell-based.
The test system of the next assay is PANC-1. As to the kind of experiment: Antiproliferative activity against human PANC-1 cells assessed as inhibition of cell growth incubated for 24 to 72 hrs by MTT assay. It is filed as functional, cell-based.
The target of assay [15] is Tubulin beta. As to the kind of experiment: Inhibition of beta-tubulin polymerization in human HCT-116 cells using TMB substrate by ELISA. It counts as cell-based.

T1 sequence (P35968 whole entry): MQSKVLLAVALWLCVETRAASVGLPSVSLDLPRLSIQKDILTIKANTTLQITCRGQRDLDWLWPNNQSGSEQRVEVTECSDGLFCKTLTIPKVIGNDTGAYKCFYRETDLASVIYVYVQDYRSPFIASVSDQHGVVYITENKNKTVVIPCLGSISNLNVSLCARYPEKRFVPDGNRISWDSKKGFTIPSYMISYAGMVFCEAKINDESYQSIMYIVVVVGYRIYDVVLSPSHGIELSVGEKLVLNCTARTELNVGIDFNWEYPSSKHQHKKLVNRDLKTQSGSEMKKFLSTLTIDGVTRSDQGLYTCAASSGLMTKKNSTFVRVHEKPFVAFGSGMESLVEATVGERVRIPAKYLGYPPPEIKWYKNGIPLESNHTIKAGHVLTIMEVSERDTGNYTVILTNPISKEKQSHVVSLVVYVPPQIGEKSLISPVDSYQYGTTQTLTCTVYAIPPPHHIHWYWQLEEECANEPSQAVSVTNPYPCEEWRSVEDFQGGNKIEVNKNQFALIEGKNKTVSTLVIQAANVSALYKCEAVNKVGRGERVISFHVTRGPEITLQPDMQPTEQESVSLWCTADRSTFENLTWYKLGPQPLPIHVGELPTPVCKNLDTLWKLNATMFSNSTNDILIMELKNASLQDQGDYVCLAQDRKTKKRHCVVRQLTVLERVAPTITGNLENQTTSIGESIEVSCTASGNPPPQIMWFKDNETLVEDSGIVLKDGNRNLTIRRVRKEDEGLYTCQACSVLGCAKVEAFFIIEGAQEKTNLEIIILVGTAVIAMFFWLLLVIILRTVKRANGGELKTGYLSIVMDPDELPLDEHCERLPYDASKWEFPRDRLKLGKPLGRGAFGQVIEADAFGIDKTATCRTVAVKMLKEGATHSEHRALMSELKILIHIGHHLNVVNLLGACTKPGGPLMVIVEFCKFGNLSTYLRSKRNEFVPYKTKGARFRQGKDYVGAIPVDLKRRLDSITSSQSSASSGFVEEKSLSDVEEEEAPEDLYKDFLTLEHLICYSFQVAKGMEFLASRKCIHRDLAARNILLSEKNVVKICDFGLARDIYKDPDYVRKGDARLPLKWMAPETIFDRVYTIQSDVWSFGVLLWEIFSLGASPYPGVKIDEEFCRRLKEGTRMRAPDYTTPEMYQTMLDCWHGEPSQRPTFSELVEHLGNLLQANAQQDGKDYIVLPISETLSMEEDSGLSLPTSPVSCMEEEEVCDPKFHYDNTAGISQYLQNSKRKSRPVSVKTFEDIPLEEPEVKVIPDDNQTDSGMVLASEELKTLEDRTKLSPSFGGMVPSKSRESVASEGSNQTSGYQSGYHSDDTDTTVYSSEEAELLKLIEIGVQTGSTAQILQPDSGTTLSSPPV
DNA topoisomerase 2-alpha, sequence (P11388 whole entry): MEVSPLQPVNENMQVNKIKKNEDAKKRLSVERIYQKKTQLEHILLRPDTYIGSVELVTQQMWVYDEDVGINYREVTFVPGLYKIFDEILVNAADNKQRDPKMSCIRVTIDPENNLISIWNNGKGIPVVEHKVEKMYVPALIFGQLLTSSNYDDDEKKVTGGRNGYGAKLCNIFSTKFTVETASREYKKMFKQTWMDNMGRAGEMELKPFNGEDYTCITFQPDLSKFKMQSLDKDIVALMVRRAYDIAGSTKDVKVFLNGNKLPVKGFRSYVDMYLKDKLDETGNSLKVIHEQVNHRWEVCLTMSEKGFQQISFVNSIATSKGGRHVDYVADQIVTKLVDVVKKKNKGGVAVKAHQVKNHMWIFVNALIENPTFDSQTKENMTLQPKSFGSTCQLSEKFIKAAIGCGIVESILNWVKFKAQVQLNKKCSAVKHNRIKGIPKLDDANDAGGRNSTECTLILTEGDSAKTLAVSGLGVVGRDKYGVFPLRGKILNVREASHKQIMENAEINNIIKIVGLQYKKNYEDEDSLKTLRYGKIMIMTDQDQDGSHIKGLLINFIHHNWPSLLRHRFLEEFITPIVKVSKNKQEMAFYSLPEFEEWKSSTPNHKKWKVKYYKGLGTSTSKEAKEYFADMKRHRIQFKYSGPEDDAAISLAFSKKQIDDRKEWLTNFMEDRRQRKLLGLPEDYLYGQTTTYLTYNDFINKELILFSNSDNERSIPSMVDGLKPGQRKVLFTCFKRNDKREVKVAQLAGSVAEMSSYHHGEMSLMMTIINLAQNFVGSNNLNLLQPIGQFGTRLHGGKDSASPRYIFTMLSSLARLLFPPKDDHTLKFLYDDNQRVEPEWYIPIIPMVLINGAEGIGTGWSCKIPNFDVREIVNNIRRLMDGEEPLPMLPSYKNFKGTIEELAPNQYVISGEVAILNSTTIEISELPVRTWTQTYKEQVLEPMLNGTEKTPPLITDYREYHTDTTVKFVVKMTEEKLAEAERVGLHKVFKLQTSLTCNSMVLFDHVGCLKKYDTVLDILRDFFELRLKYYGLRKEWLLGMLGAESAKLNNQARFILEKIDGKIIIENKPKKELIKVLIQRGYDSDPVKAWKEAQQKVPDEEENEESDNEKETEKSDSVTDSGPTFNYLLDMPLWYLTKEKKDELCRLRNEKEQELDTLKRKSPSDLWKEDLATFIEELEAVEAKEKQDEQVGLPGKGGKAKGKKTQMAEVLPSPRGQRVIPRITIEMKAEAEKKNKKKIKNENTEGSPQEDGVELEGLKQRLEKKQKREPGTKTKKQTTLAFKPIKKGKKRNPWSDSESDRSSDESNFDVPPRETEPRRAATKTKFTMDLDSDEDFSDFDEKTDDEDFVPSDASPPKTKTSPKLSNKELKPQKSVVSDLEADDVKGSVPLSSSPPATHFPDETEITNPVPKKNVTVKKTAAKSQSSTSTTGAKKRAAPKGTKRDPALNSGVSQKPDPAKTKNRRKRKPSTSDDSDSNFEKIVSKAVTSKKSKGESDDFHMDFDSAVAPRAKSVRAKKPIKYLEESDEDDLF

Broadly, the inhibition is the drop in the measured response relative to a control, in per cent. As a reminder, the IC50 is the concentration that inhibits the measured activity by half. Regarding `COc1ccc(NC(=O)c2c(Nc3ccccc3)sc(C(=O)N/N=C/c3ccc(O)c(O)c3)c2NC(C)=O)cc1`, in assay [1], the inhibition came to 86%. This molecule also came in with a half-inhibitory concentration (IC50) in assay [2] of 1290 nM.
As for `COc1ccc(CCNc2nc(N)c(C(=O)c3cc(OC)c(OC)c(OC)c3)s2)cc1`, the half-maximal inhibitory concentration (IC50) is 8000 nM in the assay on SK-MEL-1, over 20000 nM against Tubulin [3], 5700 nM with U-937 and over 10000 nM on Cyclin-dependent kinase.
In assay [4], `CSc1nn(-c2ccc(Br)cc2)c2nc(C)nc(Nc3ccc(OCCCC[N+](=O)[O-])cc3)c12` had an IC50 of 3000 nM.
`O=C(Nc1ccccc1C(=O)N/N=C/c1ccc(O)cc1O)c1ccco1` came in with an IC50 on Tubulin beta [5] of 108.4 nM.
As to `COc1ccc(NC(=O)c2c(Nc3ccccc3)sc(C#N)c2NC(=O)CNc2ccc(Cl)cc2)cc1`, the inhibition in assay [1] is 73%. The molecule further yielded an IC50 in assay [2] of 590 nM.
The molecule `CC(=O)O[C@H]1CC[C@]2(C)[C@H]3CC=C4[C@@H]5CC(C)(C)CC[C@]5(C(=O)OCCCC[N+](=O)[O-])CC[C@@]4(C)[C@]3(C)CC[C@H]2C1(C)CO` (some centres not stated) yielded an IC50 in assay [4] of 10 nM.
On to `CCCOCCSc1nc(-c2ccccc2Cl)nn1CCOCCC`, for which the figures for the IC50 (in the assay on HepG2; in assay [6]; at Tubulin [7]) were 1300 nM, 867 nM and 107 nM, respectively.
On DNA topoisomerase 1, `N#CC1=C(N)Oc2ccccc2C1c1cc2ccccc2n2nnnc12` (configuration not stated) had a 50% inhibitory concentration (IC50) of 278 nM. The inhibition was found to be 60% in assay [8] and 30% in assay [9].
With `CC(=O)Nc1ccc(-c2ccnc(NCc3ccc(OCCCCCC(=O)NO)cc3)n2)cc1`, the IC50 in assay [10] was 2.6 nM; against Histone deacetylase 1, 306 nM; in assay [11] it was 20 nM.
`CN1CCN(c2cc3c(cc2F)C(=O)C(/C=C2\CN(C4CC4)c4cc(N5CCNCC5)c(F)cc4C2=O)CN3C2CC2)CC1` (configuration not stated): the IC50 with BGC-823 turned out to be 312 nM; in the assay on T-24, 312 nM; in the assay with CAPAN-1 it was 312 nM; in [12], 1600 nM; in assay [13], 3100 nM; in assay [14] it was 640 nM. The IC50 in the assay on DU-145, in the assay with HGC-27 and in the assay with PANC-1 was 312 nM throughout.
In the case of `CCc1nnc2c(Nc3ccc(C(=O)/C=C/c4cc(OC)c(OC)c(OC)c4)cc3)nc3ccccc3n12`, the IC50 was 8400 nM against Tubulin beta [15] and 93 nM in assay [6].
Take `O=[N+]([O-])OCCCOc1ccc(Nc2ncnc3c2cnn3-c2ccc(Br)cc2)cc1`: 3000 nM corresponded to half-maximal inhibition in [4] (IC50).
